Data as given in patent US6432922B1 (Corvas International, Inc., priority 1998, dated 2002).
Like-named read-outs stand apart in the source and are kept apart here. Non-standard residues stand in square brackets, D forms with d. Residues, ends and D or L forms follow the SMILES beside them. *: point of attachment. AllylGly = C=CC[C@H](N)C(=O)O; Cbz = O=C(OCc1ccccc1)*

What was measured:
Urokinase (Abbokinase) = Urokinase (Abbokinase) (Homo sapiens, UniProt P00749); test: Urokinase chromogenic substrate (S-2444) IC50 assay
Procedure: The buffer used for all assays was HBSA (10 mM HEPES, pH 7.5, 150 mM sodium chloride, 0.1% bovine serum albumin).
The initial velocity of chromogenic substrate hydrolysis was measured by the change in absorbance at 405 nm using a Thermo Max® Kinetic Microplate Reader over a 5 minute period in which less than 5% of the added substrate was utilized.
The assay buffer was HBS (10mM HEPES, 150mM sodium chloride pH 7.4) with 0.1% BSA.

[1] = tested on: bFGF-induced angiogenesis on the CAM of chick embryos; test: Chicken CAM model of bFGF-induced angiogenesis; assay type: in vivo; conditions: for Angiogenic Index / # of Blood Vessel Branch Points: bFGF; for Angiogenic Index: difference in branch points vs untreated control embryos; for # of Blood Vessel Branch Points: single administration
Excerpt: A test compound can either be added to the filter disc that contains the angiogenesis inducer, be placed directly on the membrane or be administered systemically. The extent of new blood vessel formation in the presence and/or absence of test compound can be compared using this model. The formation of fewer new blood vessels in the presence of a test compound would be indicative of anti-angiogenesis activity.
The chicken CAM (chick embryo chorioallantoic membrane) model, a standard angiogenesis assay, was used to evaluate the ability of Compound 1 to inhibit angiogenesis. This model is an established model for evaluation of activity of a test compound to affect formulation of new blood vessels.
A filter disc saturated with a 0.5 μg/ml solution of basic fibroblast growth factor (bFGF) was placed on the CAM of 10 day old chick embryos to induce angiogenesis. Twenty four hours later, 0 to 1 μg of Compound 1, in a total volume of 100 μl of sterile PBS, was injected intravenously into the embryo. Approximately 48 hours later, the embryos were sacrificed and the filter discs and surrounding CAM tissue were excised for analysis. Angiogenesis was quantitated by counting the number of blood vessel branch points within the confined region of the filter [Brooks, P.C., et al, Methods in Molecular Biology 120:257-269 (1999)]. The angiogenic index is defined as the difference in the number of blood vessel branch points between an experimental group and the untreated, control embryos. Each experimental group contained 8 to 10 chicken embryos. A single administration of 1 μg of Compound 1 inhibited angiogenesis by 92% in this experiment.

[2] = tested on: human fibrosarcoma cells (HT 1080); test: Growth of human HT1080 tumor cells in chick embryo model; assay type: in vivo, chicken; conditions: for Tumor wet weight: 7 days incubation
Procedure: A chicken embryo model was used to evaluate the activity of Compound 1 to inhibit the growth of human tumor cells in vivo. A single cell suspension of human fibrosarcoma cells (HT 1080), containing 4×10^5 cells in a total volume of 40 μl, was applied to 10 day old chick embryos as described by Brooks, et al (“Brooks, P.C., et al, “Integrin αvβ3 Antagonists Promote Tumor Regression by Inducing Apoptosis of Angiogenic Blood Vessels”, Cell 79:1157-1164 (1994)). Twenty-four hours later 0 to 10 μg of Compound 1 was injected intravenously into the embryos. Following this single administration of compound, control and treated embryos were incubated for a total of 7 days and then sacrificed. Tumors were excised, trimmed free of surrounding CAM tissue, and weighed. Each experimental group contained 10 to 12 chicken embryos. A single dose of 10 μg of Compound 1 reduced tumor weight by approximately 65%.

Human rt-PA (Activase) = molecular target: T1, Human rt-PA (Activase) (Homo sapiens, UniProt P00750); test: Recombinant tissue plasminogen activator (rt-PA) chromogenic assay; assay type: biochemical; conditions: 30 minute preincubation, HBSA buffer; read-out: tPA IC50
T1 construct: purchased Genentech Inc
T1 sequence (P00750 36-562): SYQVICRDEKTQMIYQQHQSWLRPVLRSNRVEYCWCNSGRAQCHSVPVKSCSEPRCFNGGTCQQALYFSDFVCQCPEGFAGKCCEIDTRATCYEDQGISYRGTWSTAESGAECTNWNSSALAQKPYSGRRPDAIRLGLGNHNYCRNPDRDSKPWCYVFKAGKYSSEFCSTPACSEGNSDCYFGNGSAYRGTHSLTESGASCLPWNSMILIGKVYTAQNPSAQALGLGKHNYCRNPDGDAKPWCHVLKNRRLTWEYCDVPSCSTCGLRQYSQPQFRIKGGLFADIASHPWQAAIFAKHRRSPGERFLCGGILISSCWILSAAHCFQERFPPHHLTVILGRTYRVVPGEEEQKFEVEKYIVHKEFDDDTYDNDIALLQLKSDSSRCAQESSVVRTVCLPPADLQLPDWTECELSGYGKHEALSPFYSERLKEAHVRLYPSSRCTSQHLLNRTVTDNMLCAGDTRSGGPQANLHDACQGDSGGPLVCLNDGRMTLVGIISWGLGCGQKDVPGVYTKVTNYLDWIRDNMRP
Procedure: rt-PA catalytic activity was determined using the substrate, Pefachrome t-PA (CH3SO2-D-hexahydrotyrosine-glycyl-L-arginine-p-nitroaniline, obtained from Pentap harm Ltd.). The substrate was made up in deionized water followed by dilution in HBSA prior to the assay in which the final concentration was 500 micromolar (about 3-times Km). Human rt-PA (Activase®) was obtained from Genentech Inc. The enzyme was reconstituted in deionized water and diluted into HBSA prior to the assay in which the final concentration was 1.0 nM.

human plasmin = molecular target: T2, human plasmin (Homo sapiens, UniProt P00747); test: Plasmin chromogenic substrate (S-2366) assay; assay type: biochemical; conditions: 30 minute preincubation, HBSA buffer
T2 construct: purchased Enzyme Research Laboratories, Inc
T2 sequence (P00747 581-810 limits assumed): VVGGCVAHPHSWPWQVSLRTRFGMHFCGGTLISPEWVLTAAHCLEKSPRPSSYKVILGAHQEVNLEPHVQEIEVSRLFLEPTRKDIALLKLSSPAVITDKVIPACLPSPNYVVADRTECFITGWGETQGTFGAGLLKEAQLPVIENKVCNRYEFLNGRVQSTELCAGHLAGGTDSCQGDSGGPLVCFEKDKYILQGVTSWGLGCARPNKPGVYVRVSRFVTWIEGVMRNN
T2 sequence (P00747 97-580 partner limits assumed): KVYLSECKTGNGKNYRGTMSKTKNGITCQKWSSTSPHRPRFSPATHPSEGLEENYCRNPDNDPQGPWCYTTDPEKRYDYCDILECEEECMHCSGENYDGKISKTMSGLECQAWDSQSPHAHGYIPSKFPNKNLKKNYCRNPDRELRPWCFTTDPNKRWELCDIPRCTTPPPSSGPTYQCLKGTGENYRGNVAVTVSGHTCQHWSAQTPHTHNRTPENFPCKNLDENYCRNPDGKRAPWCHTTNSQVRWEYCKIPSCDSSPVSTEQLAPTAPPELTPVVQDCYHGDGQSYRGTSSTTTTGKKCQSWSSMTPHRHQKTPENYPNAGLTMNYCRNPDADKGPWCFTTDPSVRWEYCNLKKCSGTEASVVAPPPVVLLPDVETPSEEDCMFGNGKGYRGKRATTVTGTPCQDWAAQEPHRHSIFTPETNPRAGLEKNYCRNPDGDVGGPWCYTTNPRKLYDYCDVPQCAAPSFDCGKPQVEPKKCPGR
Procedure: The substrate was made up in deionized water followed by dilution in HBSA prior to the assay in which the final concentration was 300 micromolar (about 2.5-times Km). Purified human plasmin was obtained from Enzyme Research Laboratories, Inc. The enzyme was diluted into HBSA prior to assay in which the final concentration was 1.0 nM.

IC50 (Urokinase (Abbokinase)) [µM] | IC50 (Human rt-PA (Activase)) [µM] | IC50 (human plasmin) [µM] | IC50 (Urokinase (Abbokinase); read-out: uPA IC50, 30 minute preincubation, HBSA buffer) [µM] | Molecule | Angiogenic Index ([1]; 0.001 μg Compound 1) | # of Blood Vessel Branch Points ([1]; 0.001 μg Compound 1 intravenously) | Angiogenic Index ([1]; 0.01 μg Compound 1) | # of Blood Vessel Branch Points ([1]; 0.01 μg Compound 1 intravenously) | Angiogenic Index ([1]; 1.0 μg Compound 1) | # of Blood Vessel Branch Points ([1]; 1.0 μg Compound 1 intravenously) | inhibition of angiogenesis ([1]; single administration of 1 μg, intravenously) [%] | Tumor wet weight ([2]; 1 μg single intravenous dose) [mg] | Tumor wet weight ([2]; 10 μg single intravenous dose) [mg] | reduction of tumor weight ([2]; single dose of 10 μg)
< 0.1 | > 2.5 | 0.25 to 2.5 | – | CC(C)COC(=O)N[C@H](CO)C(=O)N[C@@H](C)C(=O)N[C@H](C=O)CCCNC(=N)N [Compound 1, Isobutyloxycarbonyl-D-seryl-L-alanyl-argininal] | 22 | 35 +/− 5 | 8 | 21 +/− 5 | 2 | 15 +/− 1 | 92 | 174 ± 25 | 97 ± 15 | approximately 65%
0.1 to 0.25 | > 2.5 | 0.25 to 2.5 | – | C=CC[C@H](NC(=O)[C@@H](CO)NC(=O)OCc1ccccc1)C(=O)N[C@H](C=O)CCCNC(=N)N [Compound 52, benzyloxycarbonyl-D-seryl-L-allylglycyl-argininal] (Cbz-[dS]-[AllylGly]-Arg-aldehyde) | – | – | – | – | – | – | – | – | – | –
< 0.1 | > 2.5 | 0.25 to 2.5 | – | C[C@H](NC(=O)[C@@H](CO)NS(=O)(=O)/C=C/c1ccccc1)C(=O)N[C@H](C=O)CCCNC(=N)N [Compound 53, trans-β-Styrenesulfonyl-D-seryl-L-alanyl-argininal] | – | – | – | – | – | – | – | – | – | –
– | > 2.5 | 0.25 to 2.5 | < 0.1 | benzyloxycarbonyl-D-seryl-L-β-cyanoalanine-argininal [Compound 46] | – | – | – | – | – | – | – | – | – | –
